Measured values reported in EPA's ToxValDB 9.5.
Values after ≈ are worked out from the molar mass of the structure shown.

What was measured:
Bibionidae = conditions: chronic/long-term
Canidae = conditions: Dog Other
Colinus virginianus = conditions: for LD50: acute, oral, mortality
Daphnia magna = conditions: chronic/long-term; duration: 21 days; reproduction
Tagia sp. = conditions: for LC50: acute, duration: 14 days
Typhlodromus pyri = assay: LR50; higher = less toxic; conditions: not reported; mortality
[1] = tested on: Vigna radiata var. radiata; conditions: not reported; other
Anas platyrhynchos = conditions: for LC50: short-term, oral, feed, mortality
Bird = conditions: acute; oral; unspecified; mortality
Coturnix coturnix = conditions: acute; oral; mortality
Mus musculus = conditions: acute; oral; F; mortality
Coturnix japonica = conditions: reproduction developmental
Sus scrofa = conditions: oral, Not specified
Danio rerio = conditions: acute; duration: 96 hours; mortality
Equus caballus [2] = conditions: acute; oral; unspecified; mortality
Meleagris sp. = conditions: chronic/long-term; duration: 16 weeks; oral; feed; M/F; no effects
Numida meleagris = conditions: subchronic; duration: 35 days; oral; feed; no effects
Phasianus sp. = conditions: subchronic; duration: 35 days; oral; feed; food consumption
Equus caballus [3] = assay: ALD; higher = less toxic; conditions: acute; oral; unspecified; mortality
Apis mellifera = conditions: acute, duration: 48 hours, mortality
Gasterosteus aculeatus = conditions: acute; duration: 96 hours; mortality
Aphidius rhopalosiphi = assay: LR50; higher = less toxic; conditions: acute; duration: 48 hours; mortality
Bovidae = conditions: subchronic; duration: 90 days; neurology
Felidae = conditions: chronic; duration: 420 days; oral; diet; M/F; Cat; neurology
Neovison vison = conditions: chronic; duration: 93 days; oral; diet; neurology
Ovis sp. = conditions: subchronic; duration: 59 days; oral; diet; neurology
Macaca mulatta = conditions: chronic; duration: 183 days; oral; capsule; M/F; clinical chemistry
Lepomis macrochirus = conditions: acute; duration: 96 hours; mortality
Leuciscus idus = conditions: acute; duration: 96 hours; mortality
[4] = chronic, duration: 2 years, clinical chemistry

`Nc1c(Cl)cc([N+](=O)[O-])cc1Cl` [1-Amino-2,6-dichloro-4-nitrobenzene] showed an NOEC (Bibionidae) of 0.6 mg/L, an NOAEL (Canidae; chronic, duration: 1 years, oral, hematological) of 2.5 mg/kg-day and an NOEC (Colinus virginianus; reproduction developmental) of 35.2 mg/kg-day. The NOEC (Daphnia magna) was 0.032 mg/L, the NOEC (Oncorhynchus mykiss; chronic/long-term, duration: 28 days, growth) was 0.05 mg/L and the NOEL (Rattus norvegicus; reproduction developmental, body weight) was 19 mg/kg-day. It also gave an NOEC (Tagia sp.; chronic/long-term, duration: 56 days) of 77.8 mg/kg and an LR50 (Typhlodromus pyri) of 374 g/ha.
For `Cc1cc(C)[nH]c(=O)n1` [4,6-Dimethylpyrimidin-2-ol], the LC50 (Tagia sp.; no effects) was > 1000 mg/kg and the NOEC [1] was 2.63 mg/kg.
`CCOP(=S)(OCC)Oc1nc(Cl)c(Cl)cc1Cl` [Chlorpyrifos] gave an NOEC (Anas platyrhynchos; reproductive, reproduction) of 2.88 mg/kg-day, an LC50 (Anas platyrhynchos) of 71 mg/kg-day and an LD50 (Bird) of 122 mg/kg. For the same molecule, the NOAEL (Canidae; [4]) was 0.1 mg/kg-day, the LD50 (Colinus virginianus; duration: 1 hours) was 75 mg/kg and the LD50 (Coturnix coturnix) was 13.3 mg/kg. The LD50 (Mus musculus) was 64 mg/kg, the NOAEL (Rattus norvegicus; acute, clinical chemistry) was 0.5 mg/kg-day and the NOAEL (Rattus norvegicus; [4]) was 0.1 mg/kg-day. It also gave an NOAEL (Rattus norvegicus; reproduction developmental) of 1 mg/kg-day and an NOAEL (Rattus norvegicus; reproduction developmental, clinical chemistry) of 0.1 mg/kg-day.
`O=c1oc2ccccc2c(O)c1C1CC(c2ccc(-c3ccccc3)cc2)Cc2ccccc21` (stereo not given) [Difenacoum] gave an LC50 (Anas platyrhynchos) of 3.5 mg/kg-day, an LD50 (Canidae; acute, oral, mortality) of 50 mg/kg-day and an LD50 (Colinus virginianus) of 56 mg/kg-day. For the same molecule, the NOEC (Coturnix japonica) was > 0.01 mg/kg-day, the LC50 (Oncorhynchus mykiss; acute, duration: 96 hours, mortality) was 0.064 mg/L (≈ 0.144 µM) and the NOAEL (Oryctolagus sp.; reproduction developmental, hematological) was 0.005 mg/kg-day. The LD50 (Rattus norvegicus; acute, oral, mortality) was 1.8 mg/kg-day and the LD50 (Sus scrofa; acute, mortality) was 80 mg/kg-day.
In the case of `CC[C@@H](C(=O)[C@@H](C)[C@@H](O)[C@H](C)CCc1ccc(C)c(O)c1C(=O)[O-])[C@H]1O[C@](CC)([C@H]2CC[C@](O)(CC)[C@H](C)O2)C[C@@H]1C.[Na+]` [Lasalocid sodium], the LEL (Canidae; repeat dose other, oral, diet, clinical signs) is reported as 5 mg/kg-day, the LC50 (Danio rerio) is reported as 2.5 mg/L and the LD50 (Equus caballus [2]) is reported as 15 mg/kg. It also gave an LEL (Gallus gallus; subchronic, duration: 13 weeks, M/F, growth) of 225 mg/kg-day, an LEL (Meleagris sp.) of 375 mg/kg and an LEL (Numida meleagris) of 240 mg/kg. The NOEL (Oryctolagus sp.; developmental, duration: 23 days, oral, gavage, F, New Zealand, development) was 0.5 mg/kg-day, the LEL (Phasianus sp.) was 180 mg/kg and the NOEL (Rattus norvegicus; chronic, duration: 2 years, oral, M, organ weight) was 0.5 mg/kg-day. It also gave an LC50 (Tagia sp.; mortality) of 71.8 mg/kg and an ALD (Equus caballus [3]) of 15 mg/kg.
`CCOC(=O)CC(SP(=S)(OC)OC)C(=O)OCC` (stereo not given) [Malathion] was tested, and the LD50 (Apis mellifera; dermal) was 0.16 µg/piece, the NOEC (Daphnia magna) was 6e-05 mg/L and the LC50 (Gasterosteus aculeatus) was 0.022 mg/L (≈ 0.0666 µM). It also gave an NOEC (Oncorhynchus mykiss; chronic/long-term, duration: 97 days, morphology) of 0.021 mg/L, an NOAEL (Rattus norvegicus; chronic, duration: 2 years, neurology) of 29 mg/kg-day and an NOAEL (Rattus norvegicus; subchronic, duration: 90 days, neurology) of 34 mg/kg-day. It also gave an LC50 (Tagia sp.; mortality) of 613 mg/kg and an LR50 (Aphidius rhopalosiphi) of 0.0612 g/ha.
In the case of `[CH3][Hg+]` [Methyl mercury(II) cation], the LOAEL (Anas platyrhynchos; reproductive, development) is reported as 5 mg/kg, the NOAEL (Bovidae) is reported as 0.1 mg/kg-day and the LOAEL (Canidae; chronic, duration: 385 days, oral, neurology) is reported as 0.12 mg/kg-day. The NOAEL (Felidae) was 0.02 mg/kg-day, the NOAEL (Gallus gallus; reproduction developmental, duration: 50 days, F, reproduction) was 0.75 mg/kg-day and the LOAEL (Neovison vison) was 0.18 mg/kg-day. It also gave an NOAEL (Oncorhynchus mykiss; chronic/long-term, duration: 112 days, oral, feed, hematological) of 0.17 mg/kg-day, an LOAEL (Ovis sp.) of 0.225 mg/kg-day and an NOAEL (Sus scrofa; subchronic, duration: 60 days, diet, histopathology: nonneoplastic) of 0.19 mg/kg-day.
Work on `O=S(=O)(O)C(F)(F)C(F)(F)C(F)(F)C(F)(F)C(F)(F)C(F)(F)C(F)(F)C(F)(F)F` [Perfluorooctanesulfonic acid] yielded an NOAEL (Macaca mulatta) of 0.03 mg/kg-day.
In the case of `CC(COc1ccc(Oc2ccccc2)cc1)Oc1ccccn1` (stereo not given) [Pyriproxyfen], the LD50 (Apis mellifera; oral, unspecified) is reported as 74 µg/piece, the NOEC (Bibionidae; duration: 28 days, other) is reported as 0.01 mg/L and the NOEC (Daphnia magna) is reported as 1.5e-05 mg/L. The LC50 (Lepomis macrochirus) was > 270 µg/L and the NOEC (Oncorhynchus mykiss; chronic/long-term, duration: 95 days) was 0.0043 mg/L.
In the case of `CN(C)C.Cl` [Trimethylamine hydrochloride], the LC50 (Leuciscus idus) is reported as > 500 mg/L and the NOAEL (Rattus norvegicus; subchronic, duration: 90 days) is reported as 144 mg/kg-day.
